Data on 14 compounds can be found in patent publication US20220151982A1, “CANNABINOID COMPOSITIONS AND USE THEREOF” (priority 2019, published 2022).

Test [1] relates to resistant ovarian cancer cells (NAR). Format: cell-based. To be noted: 4 h exposure, XTT after 72 h. On the procedure: (§1) A non-resistant ovarian cancer cells lines (OVCAR8) and a resistant ovarian cancer cells line (NAR) were exposed to various concentrations of Doxorubicin (Dox), Tetrahydrocannabinolic acid (THCa) and combinations thereof. The cells were exposed to the treatment agents for 4 hours, after which the media was replaced. Cell survival/death levels were measured after 72 hours by XTT. The percent of cell survival was determined as the absorbance signal with subtracted background (media only) and normalized by mock. Each experimental combination was performed in quadruplicate/pentaplicate.
(§2) A non-resistant ovarian cancer cells line (OVCAR8) and a resistant ovarian cancer cell line (NAR) were exposed to various concentrations of Doxorubicin (Dox), Cannabidiol (CBD) and combinations thereof. The cells were exposed to the treatment agents for 4 hours, after which the media was replaced. Cell survival/death levels were measured after 72 hours by XTT. The percent of cell survival was determined as the absorbance signal with subtracted background (media only) and normalized by mock. Each experimental combination was performed in quadruplicate/pentaplicate.
The resistant ovarian cancer cells line (NAR) was exposed to various concentrations of Taxol (Paclitaxel), Tetrahydrocannabinolic acid (THCa) and combinations thereof. The cells were exposed to the treatment agents for 4 hours, after which the media was replaced. Cell survival/death levels were measured after 72 hours by XTT. The percent of cell survival was determined as the absorbance signal with subtracted background (media only) and normalized by mock. Each experimental combination was performed in quadruplicate/pentaplicate.
The resistant ovarian cancer cells line (NAR) was exposed to various concentrations of Cisplatin, Tetrahydrocannabinolic acid (THCa) and combinations thereof. The cells were exposed to the treatment agents for 4 hours, after which the media was replaced. Cell survival/death levels were measured after 72 hours by XTT. The percent of cell survival was determined as the absorbance signal with subtracted background (media only) and normalized by mock. Each experimental combination was performed in quadruplicate/pentaplicate.
For orientation: Tetrazolium assays rely on reduction of a dye to a coloured formazan, in cell work by metabolically active cells.

Test [2] deals with non-resistant ovarian cancer cells (OVCAR8). The experiment in a line: XTT cell survival/death, non-resistant ovarian cancer cells. Format: cell-based. The note with it: Doxorubicin 30 μM alone, 4 h exposure, XTT after 72 h. On the procedure: as §1, §2
The test system of test [3] is resistant pancreatic cancer cells (PANC-1). Format: cell-based. The note with it: 4 h exposure, XTT after 72 h. As for the experimental part: A resistant pancreatic cancer cells line (PANC-1) was exposed to fluorouracil (5-FU), Tetrahydrocannabinolic acid (THCa) and combination thereof. The cells were exposed to the treatment agents for 4 hours, after which the media was replaced. Cell survival/death levels were measured after 72 hours by XTT. The percent of cell survival was determined as the absorbance signal with subtracted background (media only) and normalized by mock. Each experimental combination was performed in quadruplicate/pentaplicate.

Test [4] deals with resistant ovarian cancer cells (NAR). Format: cell-based. The note with it: CBN 674 or 270 μM added to Dox.
The subject of test [5] is lung cancer resistant cells (NCI-H69/LX4). Format: cell-based. The note with it: 4 h exposure, XTT after 72 h. On the procedure:
A multi-drug resistant small cell lung cancer cells line (NCI-H69/LX4) was exposed to Vincristine, Tetrahydrocannabinolic acid (THCa) and combination thereof. The cells were exposed to the treatment agents for 4 hours, after which the media was replaced. Cell survival/death levels were measured after 72 hours by XTT. The percent of cell survival was determined as the absorbance signal with subtracted background (media only) and normalized by mock. Each experimental combination was performed in quadruplicate/pentaplicate.

In the next test the test system is NAR cell's efflux pumps. The test is described as follows: Doxorubicin efflux into the media from pre-treated resistant cells. The note with it: NAR pre-treated with sub-lethal Doxorubicin; media with vs without cannabinoid, 5 minutes to 24 hours. Format: cell-based. On the procedure: A resistant ovarian cancer cell line (NAR) was pre-treated with sub-lethal concentrations of Doxorubicin (Dox), and then incubated in media with and without THCa or CBD for time periods ranging from 5 minutes to 24 hours (a total of 12 time points were measured). The ability of the cells to efflux Dox into the media was measured and compared between the cells grown in the presence and absence of THCa (FIG. 8A) or CBD (FIG. 8B).

For test [6], the system named is Methicillin-resistant Staphylococcus aureus (MRSA). The test is described as follows: MRSA killing by CFU counting after 4 h incubation. To be noted: for Percentage death of MRSA cells, Antibiotics alone: antibiotic at MIC value; for Percentage death of MRSA cells, Antibiotics + CBD (565 μM): antibiotic at MIC value + CBD 565 μM.

Values joined by “and” are separate entries in the source; they are usually repeats but may differ in a detail not shown here. Identical values can stand only once. Like-named read-outs stand apart in the source and are kept apart here.

For `N.N.[Cl][Pt][Cl]` [Cisplatin], the cell death in test [1] (Cisplatin 115 μM alone) worked out at 12%.

`COc1cccc2c1C(=O)c1c(O)c3c(c(O)c1C2=O)C[C@@](O)(C(=O)CO)C[C@@H]3O[C@H]1C[C@H](N)[C@H](O)[C@H](C)O1` [Doxorubicin]: the cell death was 94% in test [2]; 16% and 20% in test [1] (Doxorubicin 30 μM alone); 20% in test [1] (Doxorubicin 30 μM alone, listed as Dox).

On to `O=c1[nH]cc(F)c(=O)[nH]1` [5-FU, fluorouracil], for which the cell death in test [3] (5-FU 2 μM alone) was determined as 14%.

On to `CCCCCc1cc(O)c2c(c1)OC(C)(C)c1ccc(C)cc1-2` [CBN, Cannabinol], for which, in test [4], the “effect on Dox toxicity (enhancement of cell death)” value is on record as “did not significantly enhance cell death”.

For the compound `CC[C@]1(O)C[C@H]2CN(CCc3c([nH]c4ccccc34)[C@@](C(=O)OC)(c3cc4c(cc3OC)N(C=O)[C@H]3[C@@](O)(C(=O)OC)[C@H](OC(C)=O)[C@]5(CC)C=CCN6CC[C@]43[C@@H]65)C2)C1` [Vincristine], the cell death in test [5] (Vincristine 10 μM alone) is listed as 17%.

Turning to `C=C(C)[C@@H]1CCC(C)=C[C@H]1c1c(O)cc(CCCCC)cc1O` [CBD, 2-[(6R)-3-Methyl-6-prop-1-en-2-yl-lcyclohex-2-envyl]-5pentylbenzene-1,3-diol], the cell death is given as 35% in test [1] (CBD 283 μM + Doxorubicin 30 μM) and 75% in test [1] (CBD 565 μM + Doxorubicin 30 μM). In the test on NAR cell's efflux pumps, the “decrease of Dox efflux levels” value is about 40%. Besides, the “Percentage death of MRSA cells, CBD (565 μM) alone” value in test [6] (Table 2, CBD 565 μM without antibiotic, 4 hours) is 9%.

As to `CC(=O)O[C@H]1C(=O)[C@@]2(C)[C@H]([C@H](OC(=O)c3ccccc3)[C@]3(O)C[C@H](OC(=O)[C@H](O)[C@@H](NC(=O)c4ccccc4)c4ccccc4)C(C)=C1C3(C)C)[C@]1(OC(C)=O)CO[C@@H]1C[C@@H]2O` [Taxol, Paclitaxel], the cell death in test [1] (Taxol 50 μM alone) was 23%.

For the compound `CN[C@H](CC(C)C)C(=O)N[C@H]1C(=O)N[C@@H](CC(N)=O)C(=O)N[C@H]2C(=O)N[C@H]3C(=O)N[C@H](C(=O)N[C@H](C(=O)O)c4cc(O)cc(O)c4-c4cc3ccc4O)[C@H](O)c3ccc(c(Cl)c3)Oc3cc2cc(c3O[C@@H]2O[C@H](CO)[C@@H](O)[C@H](O)[C@H]2O[C@H]2C[C@](C)(N)[C@H](O)[C@H](C)O2)Oc2ccc(cc2Cl)[C@H]1O` [Vancomycin], the “Percentage death of MRSA cells, Antibiotics alone” value in test [6] (Table 1, 4 hours) is given as 8%. In test [6] (Table 2, 4 hours), the “Percentage death of MRSA cells, Antibiotics + CBD (565 μM)” value stood at 61% and the “Percentage death of MRSA cells, Antibiotics alone” value is recorded as 8%.

On to `CO[C@H]1/C=C/O[C@@]2(C)Oc3c(C)c(O)c4c(O)c(c(/C=N/N5CCN(C)CC5)c(O)c4c3C2=O)NC(=O)/C(C)=C\C=C\[C@H](C)[C@H](O)[C@@H](C)[C@@H](O)[C@@H](C)[C@H](OC(C)=O)[C@@H]1C` [Rifampicin], for which the “Percentage death of MRSA cells, Antibiotics alone” value turned out to be 17% in test [6] (Table 1, 4 hours) and 17% in test [6] (Table 2, 4 hours). The “Percentage death of MRSA cells, Antibiotics + CBD (565 μM)” value in test [6] (Table 2, 4 hours) is recorded as 73%; in test [6] (Table 2, 4 hours, listed as rifampicin), 73%.

Turning to `O=C(N[C@H](CO)[C@H](O)c1ccc([N+](=O)[O-])cc1)C(Cl)Cl` [Chloramphenicol], the “Percentage death of MRSA cells, Antibiotics alone” value in test [6] (Table 1, 4 hours) was determined as 12%. Also, in test [6] (Table 2, 4 hours), the “Percentage death of MRSA cells, Antibiotics + CBD (565 μM)” value is reported as 58% and the “Percentage death of MRSA cells, Antibiotics alone” value amounted to 12%.

Gentamycin: the “Percentage death of MRSA cells, Antibiotics + THCa (88 μM)” value in test [6] was found to be 85%. Besides, in test [6] (Table 1, 4 hours), the “Percentage death of MRSA cells, Antibiotics alone” value amounted to 15%. Besides, in test [6] (Table 2, 4 hours), the “Percentage death of MRSA cells, Antibiotics + CBD (565 μM)” value worked out at 58% and the “Percentage death of MRSA cells, Antibiotics alone” value came to 15%.

For `CCCCCc1cc2c(c(O)c1C(=O)O)[C@@H]1C=C(C)CC[C@H]1C(C)(C)O2` [THCa, tetrahydrocannabinolic acid], the cell death is 64% in test [1] (THCa 86 μM + Doxorubicin 30 μM); 86% in test [1] (THCa 172 μM + Doxorubicin 30 μM); 94% in test [1] (THCa 247 μM + Cisplatin 115 μM); 94% in test [1] (THCa 247 μM + Taxol 50 μM); 20% and 18% in test [1] (THCa 247 μM alone); 77% in test [3] (THCa 247 μM + 5-FU 2 μM). In addition, the cell death was 8% in test [3] (THCa 247 μM alone), 95% in test [5] (THCa 247 μM + Vincristine 10 μM) and 12% in test [5] (THCa 247 μM alone). Further, the “decrease of Dox efflux levels” value in the test with NAR cell's efflux pumps is on record as about 50%. Besides, the “Percentage death of MRSA cells, THCa (88 μM) alone” value in test [6] (Table 1, THCa 88 μM without antibiotic, 4 hours) is on record as 6%.

Turning to `CN(C)[C@@H]1C(O)=C(C(N)=O)C(=O)[C@@]2(O)C(O)=C3C(=O)c4c(O)cccc4[C@@](C)(O)[C@H]3C[C@@H]12` [Tetracycline], the “Percentage death of MRSA cells, Antibiotics alone” value in test [6] (Table 1, 4 hours) stood at 7%; in test [6] (Table 2, 4 hours), 7%. The “Percentage death of MRSA cells, Antibiotics + CBD (565 μM)” value in test [6] (Table 2, 4 hours) stood at 42%; in test [6] (Table 2, 4 hours, listed as tetracycline) it was 42%.

In the case of `O=C(O)c1cn(C2CC2)c2cc(N3CCNCC3)c(F)cc2c1=O` [Ciprofloxacin], in test [6] (Table 1, 4 hours), the “Percentage death of MRSA cells, Antibiotics alone” value amounted to 14%. Further, in test [6] (Table 2, 4 hours), the “Percentage death of MRSA cells, Antibiotics + CBD (565 μM)” value worked out at 54% and the “Percentage death of MRSA cells, Antibiotics alone” value was 14%.
